Experimental data published in patent US11566049B2, “Cyclic peptides and uses thereof” (LATERAL IP PTY LTD, priority 2018, dated 2023).
Several values for one entry are separate records, joined by “and”; a condition that tells them apart may be missing. Equal entries are not always repeated. Entries after “also recorded” stand apart in the source; their conditions may differ.

System: dorsal horn neurons
Assay: whole-cell recording of dorsal horn neurons in spinal cord slices from Chung models (Example 4)
Type: cell-based, rat
Conditions: 1 μM; for Input Resistance, mean in presence of peptide / Membrane Potential, mean in presence of peptide: all cells; for Normalised Input Resistance / Normalised Input Resistance ΔIR: control = 100; for effect on membrane potential and activity of dorsal horn neurons: ipsilateral to injury; for Normalised Membrane Potential / Normalised Membrane Potential ΔVm: rest = 100; for ΔIR, change in neuronal input resistance: vs control, in table positive = reduction, negative = increase; for ΔVm, change in membrane potential: vs rest, in table positive = hyperpolarisation, negative = depolarisation; for reversal potential of induced response (VI plots intersect): single cells
Experimental: Adult male Sprague-Dawley rats, weighing 220-250 g (aged/weeks and older) at the time of surgery, were used in this study. They were housed in groups of 4, in an air-conditioned room, on a 12-hour light/dark cycle with food and water available ad libitum. All experiments were performed in accordance with the U.K. Animals (Scientific Procedures) Act (1986).
The animals were housed in groups of 4 in an air-conditioned room on a 12-hour light/dark cycle. Food and water were available ad libitum. They were allowed to acclimatise to the environment for experiments for three days by leaving them on a raised metal mesh for at least 40 min. The baseline paw withdrawal threshold (PWT) was examined using a series of graduated von Frey hairs (see below) for 3 consecutive days before surgery and re-assessed on the 6th to 8th day after surgery and on the 12th to 14th day after surgery before drug dosing.
Each rat was anaesthetized with 5% isoflurane mixed with oxygen (2 L per min) followed by an intramuscular (i.m.) injection of ketamine 90 mg/kg plus xylazine 10 mg/kg. The back was shaved and sterilized with povidone-iodine. The animal was placed in a prone position and a para-medial incision was made on the skin covering the L4-6 level. The L5 spinal nerve was carefully isolated and tightly ligated with 6/0 silk suture. The wound was then closed in layers after a complete haemostasis. A single dose of antibiotics (Amoxipen, 15 mg/rat, i.p.) was routinely given for prevention of infection after surgery. The animals were placed in a temperature-controlled recovery chamber until fully awake before being returned to their home cages.
LAT9993 LoopS (SEQ ID NO:28), SEQ11+LAT9993 Loop (SEQ ID NO:32; […]), SEQ25+LAT9993 Loop (SEQ ID NO:33; […]), LAT9993 SLoop A4 (SEQ ID NO:30), LAT9993 SLoop A7 (SEQ ID NO:31), LAT9993 SLoop A9 (SEQ ID NO:34; SCRSRPVEASC) and LAT9993 SLoop A10 (SEQ ID NO:35; SCRSRPVESAC), were solubilised in distilled water and made up as concentrated stocks and stored frozen until the day of experiment when they were diluted to the required test concentrations in artificial cerebrospinal fluid (aCSF), as described in Example 3, above.
Ten to fourteen days after surgery, animals were placed in individual Perspex boxes on a raised metal mesh for at least 40 minutes prior to PWT testing. Starting with the filament of lowest force (1 g), each filament was applied perpendicularly to the centre of the ventral surface of the paw until slightly bent for 6 seconds. If the animal withdrew or lifted its paw upon stimulation, a von Frey hair with force immediately lower than that tested was subsequently used. If no response was observed, then a hair with force immediately higher was tested. The lowest amount of force required to induce reliable responses (positive in 2 out of 3 trials) was recorded as the value of PWT. Only animals showing significant mechanical allodynia (PWT≤3.5 g) were selected for subsequent electrophysiological experiments (see FIG. 5).
Once validation of a neuropathic state had been confirmed, animals were terminally anesthetized using isoflurane (Norvartis Animal Health UK Ltd.), cervically dislocated and decapitated. A laminectomy was performed and the spinal cord, with spinal roots and DRG attached, removed and cut into 250-450 μm thick slices using a Leica VT1000S vibrating microtome (Leica Microsystems UK, Milton Keynes, United Kingdom). Slices were maintained in artificial cerebrospinal fluid (aCSF) at room temperature for 1 hr after slicing before recording. For recording, individual slices were held between two grids in a custom-built chamber continuously perfused with aCSF at a rate of 4-10 ml.min^−1, illuminated from below, and viewed under a dissection microscope. The aCSF was of the following composition (mM): NaCl, 127; KCl, 1.9; KH2PO4, 1.2; CaCl2, 2.4; MgCl2, 1.3; NaHCO3, 26; D-glucose, 10; equilibrated with 95% O2-5% CO2. […]

[1] = listed as SEQ 11 + LAT9993 Loop

CRSRPVESSCSSKFSWDEYEQYKKE (listed as Homo sapiens) [SEQ25+LAT9993 Loop, peptide variant of formula (I)]
dorsal root afferent-mediated EPSPs / synaptic inputs (words): suppressed dorsal root-evoked excitatory posts-synaptic potentials (EPSPs) in one neurone; also recorded: suppressed dorsal root afferent-mediated synaptic inputs; also recorded: partly suppressed | Input Resistance, mean in presence of peptide: 339.6±97.6 MΩ | Membrane Potential, mean in presence of peptide: −49.1±3.0 mV | Input Resistance, mean in presence of peptide (listed as SEQ25 + LAT9993 Loop): 339.6 MΩ | Membrane Potential, mean in presence of peptide (listed as SEQ25 + LAT9993 Loop): −49.1 mV | Normalised Input Resistance: 101.7 | Normalised Input Resistance ΔIR: −1.7 | effect on membrane potential and activity of dorsal horn neurons: induced inhibition of spontaneous activity and suppressed an after-depolarising potential; also recorded: slight depolarisation of the membrane potential | Normalised Membrane Potential: 93.7 | Normalised Membrane Potential ΔVm: 6.3 | ΔIR, change in neuronal input resistance: 1.4±18.2 MΩ | ΔIR, change in neuronal input resistance (listed as SEQ25 + LAT9993 Loop): −1.4 MΩ | ΔVm, change in membrane potential: 3.4±0.9 mV | ΔVm, change in membrane potential (listed as SEQ25 + LAT9993 Loop): −3.4 mV

IDPSSEAPGHSCRSRPVESSC (listed as Homo sapiens) [SEQ11+LAT9993 Loop, peptide variant of formula (I)]
dorsal root afferent-mediated EPSPs / synaptic inputs (words): little effect; also recorded: No obvious effect | Input Resistance, mean in presence of peptide: 338.1±103.7 MΩ | Membrane Potential, mean in presence of peptide: −52.3±9.8 mV | Input Resistance, mean in presence of peptide [1]: 338.1 MΩ | Membrane Potential, mean in presence of peptide [1]: −52.3 mV | Normalised Input Resistance: 85.6 | Normalised Input Resistance ΔIR: 14.4 | effect on membrane potential and activity of dorsal horn neurons: membrane hyperpolarisation and inhibition of activity in 2 neurons; also recorded: membrane depolarisation in the other neurone | Normalised Membrane Potential: 101.4 | Normalised Membrane Potential ΔVm: −1.4 | reversal potential of induced response (VI plots intersect): around −65 mV | ΔIR, change in neuronal input resistance: 109.5±140.2 MΩ | ΔIR, change in neuronal input resistance [1]: 109.5 MΩ | ΔVm, change in membrane potential: 1.6±3.4 mV | ΔVm, change in membrane potential [1]: 1.6 mV

SCRARPVESSC (listed as Homo sapiens) [LAT9993 SLoop A4, peptide variant of formula (I)]
dorsal root afferent-mediated EPSPs / synaptic inputs (words): suppressed | Input Resistance, mean in presence of peptide: 294.6±40.7 MΩ | Membrane Potential, mean in presence of peptide: −53.3±5.1 mV | Input Resistance, mean in presence of peptide (listed as LAT9993 Sloop A4): 294.6 MΩ | Membrane Potential, mean in presence of peptide (listed as LAT9993 Sloop A4): −53.3 mV | Normalised Input Resistance: 78.3 | Normalised Input Resistance ΔIR: 21.7 | effect on membrane potential and activity of dorsal horn neurons: membrane hyperpolarisation and inhibition of activity in 1 neurone; also recorded: membrane depolarisation in 3 neurons | effect on membrane potential and activity of dorsal horn neurons (listed as LAT9993 Loop A4): membrane hyperpolarisation and suppression of activity | dorsal root afferent-mediated EPSPs / synaptic inputs (words) (listed as LAT9993 Loop A4): suppressed dorsal root-evoked excitatory synaptic transmission; also recorded: partly suppressed | Normalised Membrane Potential: 107.7 | Normalised Membrane Potential ΔVm: −7.7 | ΔIR, change in neuronal input resistance: 103.1±55.5 MΩ | ΔIR, change in neuronal input resistance (listed as LAT9993 Sloop A4): 103.1 MΩ | ΔVm, change in membrane potential: 4.2±3.1 mV | ΔVm, change in membrane potential (listed as LAT9993 Sloop A4): 4.2 mV

SCRSRPAESSC (listed as Homo sapiens) [LAT9993 SLoop A7, peptide variant of formula (I)]
dorsal root afferent-mediated EPSPs / synaptic inputs (words): suppressed dorsal root-evoked excitatory posts-synaptic potentials (EPSPs) in some neurons | Input Resistance, mean in presence of peptide: 292.9±81.3 MΩ and 292.9 MΩ | Membrane Potential, mean in presence of peptide: −46.2±4.3 mV and −46.2 mV | Normalised Input Resistance: 93.3 | Normalised Input Resistance ΔIR: 6.7 | effect on membrane potential and activity of dorsal horn neurons: membrane hyperpolarisation and inhibition of activity in 1 neurone; also recorded: membrane depolarisation in 1 neurone; also recorded: no effect on membrane potential in the remaining neurone | effect on membrane potential and activity of dorsal horn neurons (listed as LAT9993 Loop A7): membrane depolarisation | dorsal root afferent-mediated EPSPs / synaptic inputs (words) (listed as LAT9993 Loop A7): suppressed dorsal root afferent-mediated excitatory synaptic inputs; also recorded: partly suppressed | Normalised Membrane Potential: 95.3 | Normalised Membrane Potential ΔVm: 4.7 | reversal potential of induced response (VI plots intersect): around −90 mV | ΔIR, change in neuronal input resistance: 22.8±59.8 MΩ and 22.8 MΩ

SCRSRPVEASC (listed as Homo sapiens) [LAT9993 SLoop A9, peptide variant of formula (I)]
dorsal root afferent-mediated EPSPs / synaptic inputs (words): little effect | dorsal root-evoked IPSPs: little effect | Input Resistance, mean in presence of peptide: 243.1±54.4 MΩ and 243.1 MΩ | Membrane Potential, mean in presence of peptide: −45.6±11.2 mV and −45.6 mV | Normalised Input Resistance: 134.0 | Normalised Input Resistance ΔIR: −34.0 | effect on membrane potential and activity of dorsal horn neurons (listed as LAT9993 Loop A9): membrane depolarisation in all neurons | dorsal root afferent-mediated EPSPs / synaptic inputs (words) (listed as LAT9993 Loop A9): no obvious effect; also recorded: little effect | Normalised Membrane Potential: 76.9 | Normalised Membrane Potential ΔVm: 23.1 | reversal potential of induced response (VI plots intersect): no obvious reversal potentials

SCRSRPVESAC (listed as Homo sapiens) [LAT9993 SLoop A10, peptide variant of formula (I)]
dorsal root afferent-mediated EPSPs / synaptic inputs (words): little effect | Input Resistance, mean in presence of peptide: 452.3 MΩ | Membrane Potential, mean in presence of peptide: −56.8±5.6 mV and −56.8 mV | Input Resistance, mean in presence of peptide (listed as LAT9993 Loop A10): 452.3±197.1 MΩ | Normalised Input Resistance: 99.3 | Normalised Input Resistance ΔIR: 0.7 | effect on membrane potential and activity of dorsal horn neurons (listed as LAT9993 Loop A10): membrane hyperpolarisation and inhibition of activity in 2 neurons; also recorded: membrane depolarisation in 1 neurone; also recorded: little effect on dorsal horn neurons | Normalised Membrane Potential: 101.2 | Normalised Membrane Potential ΔVm: −1.2 | ΔIR, change in neuronal input resistance: −8.5 MΩ | ΔIR, change in neuronal input resistance (listed as LAT9993 Loop A10): 8.5±26.5 MΩ | ΔVm, change in membrane potential: 0.7±1.2 mV and 0.7 mV
